Reference: paper PMC10485003, “Antibiotic hyper-resistance in a class I aminoacyl-tRNA synthetase with altered active site signature motif” (Nature Communications, 2023)
Where “and” joins values, the source holds several entries; their conditions need not be identical. Equal entries are not always repeated.

Tested on: W130Q PmIleRS2
Assay: ATP-PPi exchange assay, mupirocin inhibition of amino acid activation
Format: biochemical, Priestia (Bacillus) megaterium
Details: for vo (initial enzyme velocity): Replica 1-3
Description: L-Ile and ATP concentrations ranged from 1/10 KM to 10 KM values. When measuring the KI towards one of the substrates, the other was held in saturation (concentrations at least 10 KM). The aliquots of the reaction mixture (1–2.5 μl) were quenched in 2 volumes of 500 mM NaOAc pH = 4.5, 0.1% SDS, and formed ^32P-ATP was separated from the remaining ^32P-PPi by thin-layer chromatography on Polygram CEL 300 PEI UV254 TLC plates (Macherey-Nagel, cat: 801063) using 750 mM KH2PO4 pH=3.5, 4 M urea buffer. Visualization and quantification of the signals was performed using a Typhoon Phosphoimager 5 (General Electric) and accompanying ImageQuant™ TL software (SV: 10.2). The kinetic constants were determined using a global fit option of the competitive inhibition model of GraphPad Prism 6 software (SV: 6.01). All experiments were performed in triplicates. The kcat was determined by dividing the maximal velocity, VM, with the used enzyme concentration.
Source data are provided as a Source Data file. Data are presented as the average value
± SD of three independent experiments. b) A 2Fo-Fc Fourier difference map of the W130Q-HVGH-PmIleRS2:Ile-AMS […]

C/C(=C\C(=O)OCCCCCCCCC(=O)O)C[C@@H]1OC[C@H](C[C@@H]2O[C@H]2[C@@H](C)[C@H](C)O)[C@@H](O)[C@H]1O [mupirocin]
vo (initial enzyme velocity) (c (mupirocin) = 1.0 μM, c (ATP) 5.0 mM, raw data for KI(MUP) towards ATP): 0.02357 mM/min and 0.02647 mM/min and 0.02323 mM/min | vo (initial enzyme velocity) (c (mupirocin) = 1.0 μM, c (ATP) 10.0 mM, raw data for KI(MUP) towards ATP): 0.0305 mM/min and 0.03243 mM/min and 0.02895 mM/min | vo (initial enzyme velocity) (c (mupirocin) = 1.0 μM, c (ATP) 15.0 mM, raw data for KI(MUP) towards ATP): 0.0343 mM/min and 0.0357 mM/min and 0.0344 mM/min | vo (initial enzyme velocity) (c (mupirocin) = 1.0 μM, c (ATP) 25.0 mM, raw data for KI(MUP) towards ATP): 0.03769 mM/min and 0.03939 mM/min and 0.0387 mM/min | vo (initial enzyme velocity) (c (mupirocin) = 1.0 μM, c (Ile) 10.0 μM, raw data for KI(MUP) towards Ile): 0.0192 mM/min | vo (initial enzyme velocity) (c (mupirocin) = 1.0 μM, c (Ile) 20.0 μM, raw data for KI(MUP) towards Ile): 0.02795 mM/min and 0.02585 mM/min and 0.02685 mM/min | vo (initial enzyme velocity) (c (mupirocin) = 1.0 μM, c (Ile) 40.0 μM, raw data for KI(MUP) towards Ile): 0.03537 mM/min and 0.0321 mM/min and 0.03467 mM/min | vo (initial enzyme velocity) (c (mupirocin) = 1.0 μM, c (Ile) 80.0 μM, raw data for KI(MUP) towards Ile): 0.04151 mM/min and 0.04237 mM/min and 0.04366 mM/min | vo (initial enzyme velocity) (c (mupirocin) = 1.0 μM, c (Ile) 120.0 μM, raw data for KI(MUP) towards Ile): 0.0461 mM/min and 0.04503 mM/min and 0.04686 mM/min | vo (initial enzyme velocity) (c (mupirocin) = 5.0 μM, c (ATP) 5.0 mM, raw data for KI(MUP) towards ATP): 0.0136 mM/min and 0.01356 mM/min and 0.01125 mM/min | vo (initial enzyme velocity) (c (mupirocin) = 5.0 μM, c (ATP) 10.0 mM, raw data for KI(MUP) towards ATP): 0.021 mM/min and 0.0203 mM/min and 0.0182 mM/min | vo (initial enzyme velocity) (c (mupirocin) = 5.0 μM, c (ATP) 15.0 mM, raw data for KI(MUP) towards ATP): 0.02537 mM/min and 0.0244 mM/min and 0.02261 mM/min | vo (initial enzyme velocity) (c (mupirocin) = 5.0 μM, c (ATP) 25.0 mM, raw data for KI(MUP) towards ATP): 0.02943 mM/min and 0.02877 mM/min and 0.02783 mM/min | vo (initial enzyme velocity) (c (mupirocin) = 5.0 μM, c (Ile) 10.0 μM, raw data for KI(MUP) towards Ile): 0.00903 mM/min and 0.00774 mM/min and 0.00698 mM/min | vo (initial enzyme velocity) (c (mupirocin) = 5.0 μM, c (Ile) 20.0 μM, raw data for KI(MUP) towards Ile): 0.01459 mM/min and 0.01343 mM/min and 0.013 mM/min | vo (initial enzyme velocity) (c (mupirocin) = 5.0 μM, c (Ile) 40.0 μM, raw data for KI(MUP) towards Ile): 0.0221 mM/min and 0.01963 mM/min and 0.02145 mM/min | vo (initial enzyme velocity) (c (mupirocin) = 5.0 μM, c (Ile) 80.0 μM, raw data for KI(MUP) towards Ile): 0.02978 mM/min and 0.02747 mM/min and 0.02888 mM/min | vo (initial enzyme velocity) (c (mupirocin) = 5.0 μM, c (Ile) 120.0 μM, raw data for KI(MUP) towards Ile): 0.03377 mM/min | vo (initial enzyme velocity) (c (mupirocin) = 10.0 μM, c (ATP) 5.0 mM, raw data for KI(MUP) towards ATP): 0.00715 mM/min and 0.00752 mM/min and 0.00698 mM/min | vo (initial enzyme velocity) (c (mupirocin) = 10.0 μM, c (ATP) 10.0 mM, raw data for KI(MUP) towards ATP): 0.01301 mM/min and 0.0137 mM/min and 0.0124 mM/min | vo (initial enzyme velocity) (c (mupirocin) = 10.0 μM, c (ATP) 15.0 mM, raw data for KI(MUP) towards ATP): 0.0168 mM/min and 0.01667 mM/min and 0.01548 mM/min | vo (initial enzyme velocity) (c (mupirocin) = 10.0 μM, c (ATP) 25.0 mM, raw data for KI(MUP) towards ATP): 0.02198 mM/min and 0.0226 mM/min and 0.02035 mM/min | vo (initial enzyme velocity) (c (mupirocin) = 10.0 μM, c (Ile) 20.0 μM, raw data for KI(MUP) towards Ile): 0.00596 mM/min and 0.0067 mM/min and 0.0071 mM/min | vo (initial enzyme velocity) (c (mupirocin) = 10.0 μM, c (Ile) 40.0 μM, raw data for KI(MUP) towards Ile): 0.01336 mM/min and 0.01164 mM/min and 0.01202 mM/min | vo (initial enzyme velocity) (c (mupirocin) = 10.0 μM, c (Ile) 80.0 μM, raw data for KI(MUP) towards Ile): 0.02022 mM/min and 0.01917 mM/min and 0.021 mM/min | vo (initial enzyme velocity) (c (mupirocin) = 10.0 μM, c (Ile) 120.0 μM, raw data for KI(MUP) towards Ile): 0.0257 mM/min and 0.02427 mM/min and 0.02578 mM/min | vo (initial enzyme velocity) (c (mupirocin) = 25.0 μM, c (ATP) 5.0 mM, raw data for KI(MUP) towards ATP): 0.00415 mM/min and 0.00472 mM/min and 0.00553 mM/min | vo (initial enzyme velocity) (c (mupirocin) = 25.0 μM, c (ATP) 10.0 mM, raw data for KI(MUP) towards ATP): 0.0064 mM/min and 0.00737 mM/min and 0.0088 mM/min | vo (initial enzyme velocity) (c (mupirocin) = 25.0 μM, c (ATP) 15.0 mM, raw data for KI(MUP) towards ATP): 0.01013 mM/min and 0.00993 mM/min and 0.01101 mM/min | vo (initial enzyme velocity) (c (mupirocin) = 25.0 μM, c (ATP) 25.0 mM, raw data for KI(MUP) towards ATP): 0.01337 mM/min and 0.01219 mM/min and 0.01445 mM/min | vo (initial enzyme velocity) (c (mupirocin) = 25.0 μM, c (Ile) 10.0 μM, raw data for KI(MUP) towards Ile): 0.0021 mM/min and 0.00205 mM/min and 0.00211 mM/min | vo (initial enzyme velocity) (c (mupirocin) = 25.0 μM, c (Ile) 20.0 μM, raw data for KI(MUP) towards Ile): 0.00338 mM/min and 0.00346 mM/min | vo (initial enzyme velocity) (c (mupirocin) = 25.0 μM, c (Ile) 40.0 μM, raw data for KI(MUP) towards Ile): 0.00807 mM/min and 0.00657 mM/min and 0.00667 mM/min | vo (initial enzyme velocity) (c (mupirocin) = 25.0 μM, c (Ile) 80.0 μM, raw data for KI(MUP) towards Ile): 0.012 mM/min and 0.01121 mM/min and 0.01201 mM/min | vo (initial enzyme velocity) (c (mupirocin) = 25.0 μM, c (Ile) 120.0 μM, raw data for KI(MUP) towards Ile): 0.01558 mM/min and 0.01519 mM/min and 0.0161 mM/min | Ki for mupirocin compared with wild-type (kinetic analysis, Supplementary Fig. 8): remained the same
